Source: article PMC8881610 (Nature Communications, 2022)
Substitutions are numbered along the chain they refer to.

Experiments:
Experiment in all cases: Whole-cell binding assay, competition with 125I-GIP1-42
Set-up in all cases: acylated tirzepatide to the full-length or modified; Flag; expressed in transfected cells
[1] = target: T1, GIPR (Homo sapiens, UniProt P48546, Q30A); settings: GIPR Q30A, CHO-K1
T1 sequence (P48546 22-466 Q30A): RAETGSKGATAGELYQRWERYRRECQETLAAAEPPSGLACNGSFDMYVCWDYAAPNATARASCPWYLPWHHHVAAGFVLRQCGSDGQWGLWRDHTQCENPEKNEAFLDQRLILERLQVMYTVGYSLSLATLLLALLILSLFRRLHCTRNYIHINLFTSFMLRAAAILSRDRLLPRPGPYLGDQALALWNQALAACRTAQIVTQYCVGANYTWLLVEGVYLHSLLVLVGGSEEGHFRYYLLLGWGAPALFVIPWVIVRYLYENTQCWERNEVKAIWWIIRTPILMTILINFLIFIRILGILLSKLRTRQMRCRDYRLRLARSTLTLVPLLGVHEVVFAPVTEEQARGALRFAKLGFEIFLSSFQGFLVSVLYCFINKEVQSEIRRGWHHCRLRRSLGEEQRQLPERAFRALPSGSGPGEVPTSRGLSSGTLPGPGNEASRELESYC
Procedure, shortened: (§1)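 Transiently transfected CHO-K1 cells expressing WT or mutant GIPR were washed in F-12 with 0.1% BSA or 0.1% casein and 33 mM HEPES, then incubated 2 h at 37 °C. After ice-cold PBS washes, cells were lysed and bound radioactivity counted (CPM).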

[2] = target: T2, GIPR (Homo sapiens, UniProt P48546, R196A); settings: GIPR R196A, CHO-K1
T2 sequence (P48546 22-466 R196A): T1 sequence (P48546 22-466 Q30A) with A9Q, R175A
Procedure, shortened: as §1

[3] = target: T3, GIPR (Homo sapiens, UniProt P48546, F127A); settings: GIPR F127A, CHO-K1
T3 sequence (P48546 22-466 F127A): T1 sequence (P48546 22-466 Q30A) with A9Q, F106A
Procedure, shortened: as §1

[4] = target: T4, GIPR (Homo sapiens, UniProt P48546, R192A); settings: GIPR R192A, CHO-K1
T4 sequence (P48546 22-466 R192A): T1 sequence (P48546 22-466 Q30A) with A9Q, R171A
Procedure, shortened: as §1

[5] = read-out: binding pIC50 (converted)

CCCCCCCCCCCCCCCC(=O)N[C@@H](CCC(=O)NCCCC[C@H](NC(=O)[C@H](CC(=O)O)NC(=O)[C@H](CO)NC(=O)[C@@H](NC(=O)[C@H](Cc1ccccc1)NC(=O)[C@@H](NC(=O)CNC(=O)[C@H](CCC(N)=O)NC(=O)C(C)(C)NC(=O)[C@@H](N)Cc1c[nH]cn1)[C@@H](C)O)[C@@H](C)O)C(=O)N[C@@H](CO)C(=O)N[C@@H](CCCCN)C(=O)N[C@@H](Cc1ccc(O)cc1)C(=O)N[C@@H](CC(C)C)C(=O)N[C@@H](CC(=O)O)C(=O)N[C@@H](CCC(=O)O)C(=O)N[C@@H](CCCNC(=N)N)C(=O)N[C@@H](C)C(=O)N[C@@H](C)C(=O)N[C@@H](CCC(N)=O)C(=O)N[C@@H](CC(=O)O)C(=O)N[C@@H](Cc1ccccc1)C(=O)N[C@H](C(=O)N[C@@H](CCC(N)=O)C(=O)N[C@@H](Cc1c[nH]c2ccccc12)C(=O)N[C@@H](CC(C)C)C(=O)N[C@@H](CC(C)C)C(=O)N[C@@H](CC(=O)O)C(=O)NCC(=O)NCC(=O)N1CCC[C@H]1C(=O)N[C@@H](CO)C(=O)N[C@@H](CO)C(=O)NCC(=O)N[C@@H](C)C(=O)N1CCC[C@H]1C(=O)N1CCC[C@H]1C(=O)N1CCC[C@H]1C(=O)N[C@@H](CO)C(N)=O)C(C)C)C(=O)O [Peptide 20]
binding Span [1]: 92.75 ± 4.50 % WT | IC50 [1, 5]: 17 nM | binding Span [2]: 71.10 ± 3.42 % WT | IC50 [2, 5]: 14.5 nM | binding Span [3]: 85.53 ± 4.36 % WT | IC50 [3, 5]: 20 nM | binding Span [4]: 71.60 ± 4.11 % WT | IC50 [4, 5]: 24 nM
